IC50 and EC50 data for 2 molecules are collected here from patent US20050119318A1, “Inhibitors of HCV replication” (priority 2003, published 2005).

The target in assay [1] is T1, HCV NS5B RdRp genotype 1b (Hepatitis C virus genotype 1b, UniProt Q9WMX2).
T1 construct: The protein was expressed with an 18 amino acid C-terminal truncation to enhance the solubility; made in house; host or cells: E. coli BL21(DE3)
Put plainly: HCV NS5B RdRp enzyme assay. The format is biochemical. The following applies: HCV RdRp genotype 1b enzyme; read-out: RdRp Inhibition Range, IC50. How it is done:
HCV NS5B RdRp cloning, expression, and purification. The cDNA encoding the NS5B protein of HCV, genotype 1b, was cloned into the pET21a expression vector. The protein was expressed with an 18 amino acid C-terminal truncation to enhance the solubility. The E. coli competent cell line BL21(DE3) was used for expression of the protein. Cultures were grown at 37° C. for ˜4 hours until the cultures reached an optical density of 2.0 at 600 nm. The cultures were cooled to 20° C. and induced with 1 mM IPTG. Fresh ampicillin was added to a final concentration of 50 μg/ml and the cells were grown overnight at 20° C.
Cell pellets (3 L) were lysed for purification to yield 15-24 mgs of purified NS5B. The lysis buffer consisted of 20 mM Tris-HCl, pH 7.4, 500 mM NaCl, 0.5% triton X-100, 1 mM DTT, 1 mM EDTA, 20% glycerol, 0.5 mg/ml lysozyme, 10 mM MgCl2, 15 ug/ml deoxyribonuclease I, and Complete TM protease inhibitor tablets (Roche). After addition of the lysis buffer, frozen cell pellets were resuspended using a tissue homogenizer. To reduce the viscosity of the sample, aliquots of the lysate were sonicated on ice using a microtip attached to a Branson sonicator. The sonicated lysate was centrifuged at 100,000×g for 1 hr at 4° C. and filtered through a 0.2 μm filter unit (Corning). […]
HCV NS5B RdRp enzyme assay. […] Plates were read on a Packard Top Count NXT. […]

Assay [2] concerns HCV replicon. The assay can be described thus: HCV replicon FRET assay (HCV RdRp cell line). It is filed as cell-based. To be noted: Hepatitis C virus, read-out: RdRp Inhibition Range, EC50. From the text:
FRET Assay Preparation. To perform the HCV FRET screening assay, 96-well cell culture plates were used. The FRET peptide (Anaspec, Inc.) (Taliani et al., Anal. Biochem. 240:60-67 (1996), expressly incorporated by reference in its entirety) contains a fluorescence donor, EDANS, near one end of the peptide and an acceptor, DABCYL, near the other end. The fluorescence of the peptide is quenched by […] resonance energy transfer (RET) between the donor and the acceptor, but as the NS3 protease cleaves the peptide the products are released from RET quenching and the fluorescence of the donor becomes apparent. […]
FRET Assay and Cytotoxicity Assay. […] After reading in a Cytoflour 4000 instrument (PE Biosystems), plates were rinsed with PBS and then used for FRET assay by the addition of 30 ul of the FRET peptide assay reagent described above (FRET Assay Preparation) per well. The plate was then placed into the Cytoflour 4000 instrument which had been set to 340 excite/490 emission, automatic mode for 20 cycles and the plate read in a kinetic mode. Typically, the signal to noise using an endpoint analysis after the reads was at least three-fold.
Compound analysis was determined by quantification of the relative HCV replicon inhibition and the relative cytotoxicity values. […]
(In general: In antiviral work, replicon cells carry a viral genome segment that copies itself.)

T1 sequence (Q9WMX2 2420-2992): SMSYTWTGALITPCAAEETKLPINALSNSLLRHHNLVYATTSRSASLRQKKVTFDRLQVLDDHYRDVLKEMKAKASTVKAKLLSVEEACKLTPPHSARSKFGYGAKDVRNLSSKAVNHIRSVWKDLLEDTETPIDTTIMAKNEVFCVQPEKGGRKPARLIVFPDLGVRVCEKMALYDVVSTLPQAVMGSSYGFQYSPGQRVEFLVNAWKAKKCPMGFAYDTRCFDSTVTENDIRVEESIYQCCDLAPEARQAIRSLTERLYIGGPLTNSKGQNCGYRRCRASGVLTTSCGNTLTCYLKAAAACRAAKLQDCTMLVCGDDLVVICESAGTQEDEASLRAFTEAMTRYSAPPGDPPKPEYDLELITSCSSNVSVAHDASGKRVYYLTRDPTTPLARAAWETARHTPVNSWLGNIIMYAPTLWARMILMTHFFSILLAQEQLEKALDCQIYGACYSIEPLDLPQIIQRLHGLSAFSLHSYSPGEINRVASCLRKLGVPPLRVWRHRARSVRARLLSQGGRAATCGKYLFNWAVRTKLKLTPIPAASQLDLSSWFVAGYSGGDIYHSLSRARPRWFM

For `Cn1c(-c2ccoc2)c(C2CCCCC2)c2ccc(C(=O)Nc3nnn[nH]3)cc21` [Compound 1], the IC50 – broadly, the concentration that inhibits the measured activity by half – in assay [1] lay within 0.1 to 1 µM. The EC50 (usually the concentration needed to bring the measured effect to its halfway point) in assay [2] is under 5 µM.
Taken in the same sequence, the figures for `Cn1c(-c2ccoc2)c(C2CCCCC2)c2ccc(-c3nnn[nH]3)cc21` [Compound 2] were 0.1 to 1 µM and 5 to 10 µM.
